These results are taken from US9328112B2, “Tetracyclic CDK9 kinase inhibitors” (AbbVie Inc., priority 2014, dated 2016).

For one assay, the target named is CDK9/Cyclin T1 (Homo sapiens (Human), UniProt P50750). As to the kind of experiment: CDK9 enzyme assay (LANCE ULight TR-FRET kinase assay). The assay is classed as biochemical. The note with it: 1000 μM ATP, 100 nM ULight MBP, kinase reaction 1 hour. In outline: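 TR-FRET readout (ex 320 nm; em 615/665 nm) after 1 h detection with 0.5 nM europium anti-phospho-MBP antibody in 20 mM EDTA stop buffer. Preceding 1 h kinase step: CDK9/Cyclin T1, ULight-MBP substrate at 100 nM, ATP at 1000 μM, compound pre-diluted in DMSO then buffer.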
Chain of CDK9/Cyclin T1 (P50750 whole entry): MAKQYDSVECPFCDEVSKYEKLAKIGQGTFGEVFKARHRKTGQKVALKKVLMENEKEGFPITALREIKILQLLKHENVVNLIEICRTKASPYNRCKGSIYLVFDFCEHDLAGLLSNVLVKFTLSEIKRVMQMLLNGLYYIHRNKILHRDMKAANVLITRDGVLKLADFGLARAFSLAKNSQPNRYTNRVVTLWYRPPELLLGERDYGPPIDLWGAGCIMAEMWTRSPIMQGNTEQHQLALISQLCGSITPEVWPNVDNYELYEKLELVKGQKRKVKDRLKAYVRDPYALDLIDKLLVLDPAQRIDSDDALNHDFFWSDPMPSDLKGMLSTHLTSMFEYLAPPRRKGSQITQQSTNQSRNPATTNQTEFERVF
Chain of CDK9/Cyclin T1 (O60563 whole entry partner): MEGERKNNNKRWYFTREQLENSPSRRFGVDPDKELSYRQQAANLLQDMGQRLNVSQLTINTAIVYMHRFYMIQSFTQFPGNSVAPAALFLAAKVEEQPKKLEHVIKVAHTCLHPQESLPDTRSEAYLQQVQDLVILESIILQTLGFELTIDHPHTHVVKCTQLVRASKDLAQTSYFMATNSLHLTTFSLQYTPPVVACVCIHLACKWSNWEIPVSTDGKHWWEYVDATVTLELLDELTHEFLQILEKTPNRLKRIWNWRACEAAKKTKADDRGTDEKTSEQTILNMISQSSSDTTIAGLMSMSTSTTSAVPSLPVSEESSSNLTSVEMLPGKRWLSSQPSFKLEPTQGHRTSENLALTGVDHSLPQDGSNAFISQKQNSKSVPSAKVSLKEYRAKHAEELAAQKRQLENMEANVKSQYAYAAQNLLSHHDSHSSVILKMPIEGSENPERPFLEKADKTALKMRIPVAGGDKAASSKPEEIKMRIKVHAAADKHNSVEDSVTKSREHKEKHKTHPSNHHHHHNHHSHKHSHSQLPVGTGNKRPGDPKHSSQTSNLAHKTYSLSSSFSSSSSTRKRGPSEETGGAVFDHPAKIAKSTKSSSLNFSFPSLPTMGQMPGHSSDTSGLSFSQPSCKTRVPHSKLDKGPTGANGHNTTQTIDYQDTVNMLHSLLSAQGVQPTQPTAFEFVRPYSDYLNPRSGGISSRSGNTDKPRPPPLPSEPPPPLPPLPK

The subject of a further assay is H929 cells. As to the kind of experiment: Cell viability assay (Cell TiterGlo). Type of assay: cell-based. The note with it: Homo sapiens, NCI-H929, 24 hours at 37° C., Cell TiterGlo luminescence. The procedure:
The cell viability assay was performed using H929 cells. Cells were seeded in 96-well plates at 10,000 cells/well and, after overnight incubation, treated with compounds in a dose response of 3-fold dilutions from 10 μM to 0.005 μM ([…], 0.1% final DMSO concentration). After 24 hours at 37° C., cell viability was measured using Cell TiterGlo reagent (Promega) with a luminescence reader.

Take `CN1Cc2c(C3=CCN(S(C)(=O)=O)CC3)[nH]c3nccc(c23)-c2ccccc21` [Example 160, 7-methyl-5-[1-(methylsulfonyl)-1,2,3,6-tetrahydropyridin-4-yl]-6,7-dihydro-4H-3,4,7-triazadibenzo[cd,f]azulene]: the IC50 (commonly the concentration needed to halve the response being measured) was determined as 85 nM at CDK9/Cyclin T1 and 94 nM in the assay on H929 cells.

Consider `CN1Cc2c(C3=CCN(S(C)(=O)=O)CC3)[nH]c3ncc(F)c(c23)-c2ccccc21` [Example 161, 1-fluoro-7-methyl-5-[1-(methylsulfonyl)-1,2,3,6-tetrahydropyridin-4-yl]-6,7-dihydro-4H-3,4,7-triazadibenzo[cd,f]azulene], for which the IC50 was 40 nM against CDK9/Cyclin T1 and 65 nM with H929 cells.

On to `CN(C)C(=O)CN1CC=C(c2[nH]c3nccc4c3c2CN(C)c2ccccc2-4)CC1` [Example 162, N,N-dimethyl-2-[4-(7-methyl-6,7-dihydro-4H-3,4,7-triazadibenzo[cd,f]azulen-5-yl)-3,6-dihydropyridin-1(2H)-yl]acetamide], for which the concentration for half-maximal inhibition (IC50) against CDK9/Cyclin T1 was found to be 115 nM; with H929 cells it was 21 nM.

With `CN(C)C(=O)CN1CC=C(c2[nH]c3ncc(F)c4c3c2CN(C)c2ccccc2-4)CC1` [Example 163, 2-[4-(1-fluoro-7-methyl-6,7-dihydro-4H-3,4,7-triazadibenzo[cd,f]azulen-5-yl)-3,6-dihydropyridin-1(2H)-yl]-N,N-dimethylacetamide], the figures for the IC50 against CDK9/Cyclin T1 and in the assay with H929 cells were 56 nM and 7 nM, respectively.

On to `OCC(O)CN1CC=C(c2[nH]c3nccc4c3c2COc2ccc(F)cc2-4)CC1` (stereo not shown) [Example 164, 3-[4-(10-fluoro-4,6-dihydro-7-oxa-3,4-diazadibenzo[cd,f]azulen-5-yl)-3,6-dihydropyridin-1(2H)-yl]propane-1,2-diol], for which the IC50 came to 130 nM against CDK9/Cyclin T1 and 270 nM in the assay on H929 cells.

Take `O=C(O)CC1CCC(N2CC=C(c3[nH]c4nccc5c4c3COc3ccc(F)cc3-5)CC2)CC1` (stereo not shown) [Example 165, {4-[4-(10-fluoro-4,6-dihydro-7-oxa-3,4-diazadibenzo[cd,f]azulen-5-yl)-3,6-dihydropyridin-1(2H)-yl]cyclohexyl}acetic acid]: the IC50 was found to be 390 nM at CDK9/Cyclin T1 and 970 nM in the assay on H929 cells.

`CN1Cc2c(C3=CCN([C@H]4CC[C@H](C(=O)O)CC4)CC3)[nH]c3ncc(F)c(c23)-c2cc(F)ccc21` [Example 166, trans-4-[4-(1,10-difluoro-7-methyl-6,7-dihydro-4H-3,4,7-triazadibenzo[cd,f]azulen-5-yl)-3,6-dihydropyridin-1(2H)-yl]cyclohexanecarboxylic acid]: the IC50 on CDK9/Cyclin T1 was 75 nM; in the assay with H929 cells, 8 nM.

As to `CN1Cc2c(C3=CCN([C@H]4CC[C@H](CC(=O)O)CC4)CC3)[nH]c3ncc(F)c(c23)-c2cc(F)ccc21` [Example 167, {trans-4-[4-(1,10-difluoro-7-methyl-6,7-dihydro-4H-3,4,7-triazadibenzo[cd,f]azulen-5-yl)-3,6-dihydropyridin-1(2H)-yl]cyclohexyl}acetic acid], the IC50 at CDK9/Cyclin T1 turned out to be 67 nM; with H929 cells, 10 nM.

For `CC[C@H]1c2c(C3=CCN(CC(=O)N(C)C)CC3)[nH]c3nccc(c23)-c2cc(F)ccc2N1C` [Example 168, 2-{4-[(6S)-6-ethyl-10-fluoro-7-methyl-6,7-dihydro-4H-3,4,7-triazadibenzo[cd,f]azulen-5-yl]-3,6-dihydropyridin-1(2H)-yl}-N,N-dimethylacetamide], the figures for the IC50 against CDK9/Cyclin T1 and with H929 cells were 60 nM and 8 nM, respectively.

Regarding `CN1Cc2c(C3=CCN(C4CCC(=CC#N)CC4)CC3)[nH]c3nccc(c23)-c2cc(F)ccc21` (stereo not shown) [Example 173, {4-[4-(10-fluoro-7-methyl-6,7-dihydro-4H-3,4,7-triazadibenzo[cd,f]azulen-5-yl)-3,6-dihydropyridin-1(2H)-yl]cyclohexylidene}acetonitrile], the IC50 against CDK9/Cyclin T1 stood at 45 nM; with H929 cells, 68 nM.

With `COC(=O)C(C)=C1CCC(N2CC=C(c3[nH]c4nccc5c4c3CN(C)c3ccc(F)cc3-5)CC2)CC1` (stereo not shown) [Example 174, methyl 2-{4-[4-(10-fluoro-7-methyl-6,7-dihydro-4H-3,4,7-triazadibenzo[cd,f]azulen-5-yl)-3,6-dihydropyridin-1(2H)-yl]cyclohexylidene}propanoate], the IC50 on CDK9/Cyclin T1 came out at 57 nM; in the assay with H929 cells, 120 nM.

On to `CN1Cc2c(C3=CCN(C4CCC(=CC(=O)OC(C)(C)C)CC4)CC3)[nH]c3nccc(c23)-c2cc(F)ccc21` (stereo not shown) [Example 175, tert-butyl{4-[4-(10-fluoro-7-methyl-6,7-dihydro-4H-3,4,7-triazadibenzo[cd,f]azulen-5-yl)-3,6-dihydropyridin-1(2H)-yl]cyclohexylidene}acetate], for which the IC50 on CDK9/Cyclin T1 amounted to 120 nM; in the assay on H929 cells, 490 nM.

For `CN1Cc2c(C3=CCN(C4CCC(=CC(=O)O)CC4)CC3)[nH]c3nccc(c23)-c2cc(F)ccc21` (stereo not shown) [Example 177, {4-[4-(10-fluoro-7-methyl-6,7-dihydro-4H-3,4,7-triazadibenzo[cd,f]azulen-5-yl)-3,6-dihydropyridin-1(2H)-yl]cyclohexylidene}acetic acid], the results for the IC50 against CDK9/Cyclin T1 and in the assay on H929 cells were 58 nM and 120 nM, respectively.

For `CN1Cc2c(C3=CCN(CCS(=O)(=O)N(C)C)CC3)[nH]c3nccc(c23)-c2cc(F)ccc21` [Example 178, 2-[4-(10-fluoro-7-methyl-6,7-dihydro-4H-3,4,7-triazadibenzo[cd,f]azulen-5-yl)-3,6-dihydropyridin-1(2H)-yl]-N,N-dimethylethanesulfonamide], the IC50 against CDK9/Cyclin T1 was 25 nM; in the assay on H929 cells it was 40 nM.

On to `CN1Cc2c(C3=CCN(CCS(N)(=O)=O)CC3)[nH]c3nccc(c23)-c2cc(F)ccc21` [Example 179, 2-[4-(10-fluoro-7-methyl-6,7-dihydro-4H-3,4,7-triazadibenzo[cd,f]azulen-5-yl)-3,6-dihydropyridin-1(2H)-yl]ethanesulfonamide], for which the IC50 on CDK9/Cyclin T1 was determined as 24 nM; in the assay with H929 cells, 64 nM.

On to `CN1Cc2c(C3=CCN([C@H]4CC[C@H](CC(=O)O)CC4)CC3)[nH]c3ncc(F)c(c23)-c2ccccc21` [Example 180, {trans-4-[4-(1-fluoro-7-methyl-6,7-dihydro-4H-3,4,7-triazadibenzo[cd,f]azulen-5-yl)-3,6-dihydropyridin-1(2H)-yl]cyclohexyl}acetic acid], for which the IC50 was found to be 73 nM against CDK9/Cyclin T1 and 11 nM in the assay on H929 cells.

Regarding `CN1Cc2c(C3=CCN([C@H]4CC[C@H](C(=O)O)CC4)CC3)[nH]c3ncc(F)c(c23)-c2ccccc21` [Example 181, trans-4-[4-(1-fluoro-7-methyl-6,7-dihydro-4H-3,4,7-triazadibenzo[cd,f]azulen-5-yl)-3,6-dihydropyridin-1(2H)-yl]cyclohexanecarboxylic acid], the IC50 at CDK9/Cyclin T1 amounted to 63 nM; in the assay on H929 cells it was 12 nM.

In the case of `CN1Cc2c(C3=CCN([C@H]4CC[C@@H](CC(=O)O)CC4)CC3)[nH]c3ncc(F)c(c23)-c2ccccc21` [Example 182, {cis-4-[4-(1-fluoro-7-methyl-6,7-dihydro-4H-3,4,7-triazadibenzo[cd,f]azulen-5-yl)-3,6-dihydropyridin-1(2H)-yl]cyclohexyl}acetic acid], the IC50 on CDK9/Cyclin T1 came out at 71 nM; with H929 cells, 10 nM.

As for `CN1Cc2c(C3=CCN([C@H]4CC[C@@H](C(=O)O)CC4)CC3)[nH]c3ncc(F)c(c23)-c2ccccc21` [Example 183, cis-4-[4-(1-fluoro-7-methyl-6,7-dihydro-4H-3,4,7-triazadibenzo[cd,f]azulen-5-yl)-3,6-dihydropyridin-1(2H)-yl]cyclohexanecarboxylic acid], the IC50 at CDK9/Cyclin T1 worked out at 80 nM; in the assay with H929 cells, 14 nM.

As for `CN1Cc2c(C3=CCCN(C4CCC(=CC(=O)O)CC4)CC3)[nH]c3nccc(c23)-c2cc(F)ccc21` (stereo not shown) [Example 184, {4-[4-(10-fluoro-7-methyl-6,7-dihydro-4H-3,4,7-triazadibenzo[cd,f]azulen-5-yl)-2,3,6,7-tetrahydro-1H-azepin-1-yl]cyclohexylidene}acetic acid], the IC50 amounted to 130 nM at CDK9/Cyclin T1 and 190 nM with H929 cells.

Turning to `CN1Cc2c(C3=CCN(C4CCC(C(C)(C)C(=O)O)CC4)CC3)[nH]c3nccc(c23)-c2cc(F)ccc21` (stereo not shown) [Example 185, 2-{4-[4-(10-fluoro-7-methyl-6,7-dihydro-4H-3,4,7-triazadibenzo[cd,f]azulen-5-yl)-3,6-dihydropyridin-1(2H)-yl]cyclohexyl}-2-methylpropanoic acid], the IC50 against CDK9/Cyclin T1 was 130 nM; in the assay on H929 cells, 160 nM.

Take `CC[C@H]1c2c(C3=CCN([C@H]4C[C@@H](C(=O)OC)C4)CC3)[nH]c3nccc(c23)-c2cc(F)ccc2N1C` [Example 186, methyl cis-3-{4-[(6S)-6-ethyl-10-fluoro-7-methyl-6,7-dihydro-4H-3,4,7-triazadibenzo[cd,f]azulen-5-yl]-3,6-dihydropyridin-1(2H)-yl}cyclobutanecarboxylate]: the IC50 worked out at 64 nM at CDK9/Cyclin T1 and 13 nM with H929 cells.

As to `CC[C@H]1c2c(C3=CCN([C@H]4C[C@@H](C(=O)O)C4)CC3)[nH]c3nccc(c23)-c2cc(F)ccc2N1C` [Example 187, cis-3-{4-[(6S)-6-ethyl-10-fluoro-7-methyl-6,7-dihydro-4H-3,4,7-triazadibenzo[cd,f]azulen-5-yl]-3,6-dihydropyridin-1(2H)-yl}cyclobutanecarboxylic acid], the figures for the IC50 at CDK9/Cyclin T1 and in the assay on H929 cells were 110 nM and 15 nM, respectively.
